Values of other authors as cited in patent US20250018217A1, “PH[…] THERAPY APPARATUS AND METHODS FOR TREATING ORAL DISEASE” (Biolux Group SA, priority 2022, published 2025).
“Also recorded” adds a separate entry of the source. Like-named read-outs stand apart in the source and are kept apart here.

Columns and labels:
[1] = tested on: microbial species
[2] = daily oral supplement of 2,000 IU to 6,000 IU in adults, within 3 months

## CN(C)c1ccc2nc3ccc(=[N+](C)C)cc-3sc2c1 [Methylene blue]
[1]; 25 ug/ml, excitation wavelength 632 nm
  Antimicrobial activity (in solution): [8] Various

## Sulfonic porphyrins (TPPS)
[1]; no concentration or wavelength printed (TPPS)
  Antimicrobial activity (in solution): [42]S. aureus

## vitamin D
[2]
  Blood levels of vitamin D: 40 ng/mL

## Phthalocynine
[1]; excitation wavelength 670 nm
  Antimicrobial activity (in solution): [74]A. hidrophila

## Cc1cc2nc3ccc(N(C)C)cc3[s+]c2cc1N.[Cl-] [Toluidine blue O]
[1]; 100 mg/l, excitation wavelength 410 nm-660 nm
  Antimicrobial activity (in solution): [21]E. coli

## Cc1cc(=[N+](C)C)cc2sc3cc(N(C)C)cc(C)c3nc1-2.[Cl-] [Dimethyl methylene blue]
[1]; 800 um, excitation wavelength 635-652
  Antimicrobial activity (in solution): [12]A. baumannii

## O=C([O-])c1c(Cl)c(Cl)c(Cl)c(Cl)c1-c1c2cc(I)c(=O)c(I)c-2oc2c(I)c([O-])c(I)cc12.[Na+].[Na+] [Rose Bengal]
[1]; 10 um, excitation wavelength 532 nm
  Antimicrobial activity (in solution): [26]E. faecalis

## O=C1OC2(c3ccccc31)c1cc(I)c(O)c(I)c1Oc1c2cc(I)c(O)c1I [Erythrosine]
[1]; excitation wavelength 500-550 nm
  Antimicrobial activity (in solution): [64]S. mutans

## CCNc1cc2[s+]c3cc(NCC)c(C)cc3nc2cc1C.[Cl-] [New Methylene blue]
[1]; 00 uM, excitation wavelength 635-652
  Antimicrobial activity (in solution): [17]A. baumannii

## COc1cc(/C=C/C(=O)CC(=O)/C=C/c2ccc(O)c(OC)c2)ccc1O [Curcumin]
[1]; 0.75 to 5 g/l, excitation wavelength 547 nm
  Antimicrobial activity (in solution): [50]S. mutans; also recorded: [51]L. acidophilus
